Test results taken from patent US8952024B2, “Herbicidal pyrimidone derivatives” (E I du Pont de Nemours and Company, priority 2009, dated 2015).

What was measured:
Type in all cases: in vivo
[1] = test system: barnyardgrass (Echinochloa crus-galli); test: Test B flooded paddy test; conditions: for Plant response rating, Flood, Barnyardgrass: 250 g ai/ha, flooded paddy test, visual rating on 0 to 100 scale (0 no effect, 100 complete control) after 13 to 15 days; for Plant response rating, Barnyardgrass: Flood (flooded paddy test), 13 to 15 days
Description: (§1) Plant species in the flooded paddy test consisted of rice (Oryza sativa), umbrella sedge (Cyperus difformis), ducksalad (Heteranthera limosa) and barnyardgrass (Echinochloa crus-galli) grown to the 2-leaf stage for testing. At the time of treatment, test pots were flooded with water to 3 cm above the soil surface, treated by application of test compounds directly to the paddy water, and then maintained at that water depth for the duration of the test.
(§2) Treated plants and controls were maintained in a greenhouse for 13 to 15 days, after which time all treated plants were visually evaluated and compared to controls. Plant response ratings, summarized in Table B, are based on a scale of 0 to 100 where 0 is no effect and 100 is complete control. A dash (-) response means no test result.

[2] = test system: rice (Oryza sativa); test: Test B flooded paddy test; conditions: for Plant response rating, Flood, Rice: 250 g ai/ha, flooded paddy test, visual rating on 0 to 100 scale (0 no effect, 100 complete control) after 13 to 15 days; for Plant response rating, Rice: Flood (flooded paddy test), 13 to 15 days
Description: as §1, §2

[3] = test system: umbrella sedge (Cyperus difformis); test: Test B flooded paddy test; conditions: for Plant response rating, Flood, Sedge, Umbrella: 250 g ai/ha, flooded paddy test, visual rating on 0 to 100 scale (0 no effect, 100 complete control) after 13 to 15 days; for Plant response rating, Sedge, Umbrella: Flood (flooded paddy test), 13 to 15 days
Description: as §1, §2

[4] = test system: ducksalad (Heteranthera limosa); test: Test B flooded paddy test; conditions: for Plant response rating, Flood, Ducksalad: 250 g ai/ha, flooded paddy test, visual rating on 0 to 100 scale (0 no effect, 100 complete control) after 13 to 15 days; for Plant response rating, Ducksalad: Flood (flooded paddy test), 13 to 15 days
Description: as §1, §2

[5] = test system: giant foxtail (Setaria faberii); test: Test A pre-/postemergence plant response
Description: (§3) Seeds of barnyardgrass (Echinochloa crus-galli), large crabgrass (Digitaria sanguinalis), giant foxtail (Setaria faberii), morningglory (Ipomoea spp.), pigweed (Amaranthus retroflexus), velvetleaf (Abutilon theophrasti), wheat (Triticum aestivum) and corn (Zea mays) were planted into a blend of loam soil and sand and treated preemergence with a directed soil spray using test chemicals formulated in a non-phytotoxic solvent mixture which included a surfactant. At the same time these species were also treated with postemergence applications of test compounds formulated in the same manner.
(§4) Plants ranged in height from two to ten cm and were in the one- to two-leaf stage for the postemergence treatment. Treated plants and untreated controls were maintained in a greenhouse for approximately ten days, after which time all treated plants were compared to untreated controls and visually evaluated for injury. Plant response ratings, summarized in Table A, are based on a 0 to 100 scale where 0 is no effect and 100 is complete control. A dash (-) response means no test result.

[6] = test system: wheat (Triticum aestivum); test: Test A pre-/postemergence plant response
Description: as §3, §4

[7] = test system: barnyardgrass (Echinochloa crus-galli); test: Test A pre-/postemergence plant response
Description: as §3, §4

[8] = test system: morningglory (Ipomoea spp.); test: Test A pre-/postemergence plant response
Description: as §3, §4

[9] = test system: velvetleaf (Abutilon theophrasti); test: Test A pre-/postemergence plant response
Description: as §3, §4

[10] = test system: pigweed (Amaranthus retroflexus); test: Test A pre-/postemergence plant response
Description: as §3, §4

[11] = test system: corn (Zea mays); test: Test A pre-/postemergence plant response
Description: as §3, §4

[12] = test system: large crabgrass (Digitaria sanguinalis); test: Test A pre-/postemergence plant response
Description: as §3, §4

[13] = 31 g ai/ha, scale of 0 to 100 where 0 is no effect and 100 is complete control
[14] = 62 g ai/ha, scale 0 to 100, 0 is no effect, 100 is complete control
[15] = 125 g ai/ha, scale 0 to 100, 0 is no effect, 100 is complete control
[16] = Postemergence, 125 g ai/ha, visual injury, 0 to 100 scale (0 no effect, 100 complete control), approx. ten days
[17] = Postemergence, 500 g ai/ha, 0 to 100 scale, 0 = no effect, 100 = complete control, approx. ten days
[18] = Preemergence, 125 g ai/ha, 0 to 100 scale, 0 = no effect, 100 = complete control
[19] = Preemergence, 500 g ai/ha, visual injury, 0 to 100 scale (0 no effect, 100 complete control), approx. ten days
[20] = 62 g ai/ha, scale of 0 to 100 where 0 is no effect and 100 is complete control

C=CCn1c(-c2ccccc2)ncc(C(=O)C2=C(O)CCCC2=O)c1=O [Compound 23]
Plant response rating, Flood, Barnyardgrass [1]: 0
Plant response rating, Barnyardgrass [1, 13]: 0
Plant response rating, Barnyardgrass [1, 14]: 0
Plant response rating, Barnyardgrass [1, 15]: 0
Plant response rating, Flood, Rice [2]: 15
Plant response rating, Rice [2, 13]: 0
Plant response rating, Rice [2, 14]: 0
Plant response rating, Rice [2, 15]: 0
Plant response rating, Flood, Sedge, Umbrella [3]: 45
Plant response rating, Sedge, Umbrella [3, 13]: 20
Plant response rating, Sedge, Umbrella [3, 14]: 30
Plant response rating, Sedge, Umbrella [3, 15]: 40
Plant response rating, Flood, Ducksalad [4]: 45
Plant response rating, Ducksalad [4, 13]: 20
Plant response rating, Ducksalad [4, 14]: 35
Plant response rating, Ducksalad [4, 15]: 45
Foxtail, Giant plant response rating [5, 16]: 10
Plant response rating, Foxtail, Giant [5, 17]: 50
Plant response rating, Foxtail, Giant [5, 18]: 0
Plant response rating, Foxtail, Giant [5, 19]: 20
Wheat plant response rating [6, 16]: 0
Plant response rating, Wheat [6, 17]: 0
Plant response rating, Wheat [6, 18]: 0
Plant response rating, Wheat [6, 19]: 0
Barnyardgrass plant response rating [7, 16]: 10
Plant response rating, Barnyardgrass [7, 17]: 60
Plant response rating, Barnyardgrass [7, 18]: 0
Plant response rating, Barnyardgrass [7, 19]: 70
Morningglory plant response rating [8, 16]: 50
Plant response rating, Morningglory [8, 17]: 100
Plant response rating, Morningglory [8, 18]: 0
Plant response rating, Morningglory [8, 19]: 70
Velvetleaf plant response rating [9, 16]: 100
Plant response rating, Velvetleaf [9, 17]: 100
Plant response rating, Velvetleaf [9, 18]: 40
Plant response rating, Velvetleaf [9, 19]: 100
Pigweed plant response rating [10, 16]: 80
Plant response rating, Pigweed [10, 17]: 100
Plant response rating, Pigweed [10, 18]: 50
Plant response rating, Pigweed [10, 19]: 70
Corn plant response rating [11, 16]: 0
Plant response rating, Corn [11, 17]: 0
Plant response rating, Corn [11, 18]: 0
Plant response rating, Corn [11, 19]: 0
Crabgrass, Large plant response rating [12, 16]: 30
Plant response rating, Crabgrass, Large [12, 17]: 60
Plant response rating, Crabgrass, Large [12, 18]: 10
Plant response rating, Crabgrass, Large [12, 19]: 90

CSc1ncc(C(=O)C2=C(O)CCCC2=O)c(=O)n1-c1ccccc1 [Compound 30]
Plant response rating, Flood, Barnyardgrass [1]: 0
Plant response rating, Barnyardgrass [1, 14]: 0
Plant response rating, Flood, Rice [2]: 0
Plant response rating, Rice [2, 14]: 0
Plant response rating, Flood, Sedge, Umbrella [3]: 50
Plant response rating, Sedge, Umbrella [3, 14]: 20
Plant response rating, Flood, Ducksalad [4]: 50
Plant response rating, Ducksalad [4, 14]: 20
Foxtail, Giant plant response rating [5, 16]: 10
Plant response rating, Foxtail, Giant [5, 17]: 40
Plant response rating, Foxtail, Giant [5, 18]: 0
Plant response rating, Foxtail, Giant [5, 19]: 10
Wheat plant response rating [6, 16]: 0
Plant response rating, Wheat [6, 17]: 0
Plant response rating, Wheat [6, 18]: 0
Plant response rating, Wheat [6, 19]: 0
Barnyardgrass plant response rating [7, 16]: 10
Plant response rating, Barnyardgrass [7, 17]: 30
Plant response rating, Barnyardgrass [7, 18]: 0
Plant response rating, Barnyardgrass [7, 19]: 40
Morningglory plant response rating [8, 16]: 30
Plant response rating, Morningglory [8, 17]: 50
Plant response rating, Morningglory [8, 18]: 0
Plant response rating, Morningglory [8, 19]: 60
Velvetleaf plant response rating [9, 16]: 100
Plant response rating, Velvetleaf [9, 18]: 20
Plant response rating, Velvetleaf [9, 19]: 70
Pigweed plant response rating [10, 16]: 70
Plant response rating, Pigweed [10, 17]: 80
Plant response rating, Pigweed [10, 18]: 0
Plant response rating, Pigweed [10, 19]: 80
Corn plant response rating [11, 16]: 0
Plant response rating, Corn [11, 17]: 0
Plant response rating, Corn [11, 18]: 0
Plant response rating, Corn [11, 19]: 0
Crabgrass, Large plant response rating [12, 16]: 30
Plant response rating, Crabgrass, Large [12, 17]: 60
Plant response rating, Crabgrass, Large [12, 18]: 0
Plant response rating, Crabgrass, Large [12, 19]: 60

O=C1CCCC(O)=C1C(=O)c1cnc(-c2ccccc2Cl)n(-c2ccccc2)c1=O [Compound 35]
Plant response rating, Flood, Barnyardgrass [1]: 0
Plant response rating, Barnyardgrass [1, 13]: 0
Plant response rating, Barnyardgrass [1, 14]: 0
Plant response rating, Barnyardgrass [1, 15]: 0
Plant response rating, Rice [2, 13]: 0
Plant response rating, Rice [2, 14]: 0
Plant response rating, Rice [2, 15]: 0
Plant response rating, Flood, Sedge, Umbrella [3]: 0
Plant response rating, Sedge, Umbrella [3, 13]: 0
Plant response rating, Sedge, Umbrella [3, 14]: 0
Plant response rating, Sedge, Umbrella [3, 15]: 0
Plant response rating, Flood, Ducksalad [4]: 0
Plant response rating, Ducksalad [4, 13]: 0
Plant response rating, Ducksalad [4, 14]: 0
Plant response rating, Ducksalad [4, 15]: 0
Foxtail, Giant plant response rating [5, 16]: 40
Plant response rating, Foxtail, Giant [5, 17]: 80
Plant response rating, Foxtail, Giant [5, 18]: 0
Plant response rating, Foxtail, Giant [5, 19]: 10
Wheat plant response rating [6, 16]: 0
Plant response rating, Wheat [6, 17]: 0
Plant response rating, Wheat [6, 18]: 0
Plant response rating, Wheat [6, 19]: 0
Barnyardgrass plant response rating [7, 16]: 10
Plant response rating, Barnyardgrass [7, 17]: 60
Plant response rating, Barnyardgrass [7, 18]: 0
Plant response rating, Barnyardgrass [7, 19]: 0
Plant response rating, Morningglory [8, 17]: 80
Plant response rating, Morningglory [8, 19]: 20
Velvetleaf plant response rating [9, 16]: 100
Plant response rating, Velvetleaf [9, 17]: 100
Plant response rating, Velvetleaf [9, 18]: 0
Plant response rating, Velvetleaf [9, 19]: 70
Pigweed plant response rating [10, 16]: 80
Plant response rating, Pigweed [10, 17]: 100
Plant response rating, Pigweed [10, 18]: 10
Plant response rating, Pigweed [10, 19]: 100
Corn plant response rating [11, 16]: 0
Plant response rating, Corn [11, 17]: 10
Plant response rating, Corn [11, 18]: 0
Plant response rating, Corn [11, 19]: 0
Crabgrass, Large plant response rating [12, 16]: 50
Plant response rating, Crabgrass, Large [12, 17]: 80
Plant response rating, Crabgrass, Large [12, 18]: 10
Plant response rating, Crabgrass, Large [12, 19]: 60

CCCCCCc1ncc(C(=O)C2=C(O)CCCC2=O)c(=O)n1-c1ccccc1 [Compound 54]
Plant response rating, Flood, Barnyardgrass [1]: 0
Plant response rating, Barnyardgrass [1, 13]: 0
Plant response rating, Barnyardgrass [1, 20]: 0
Plant response rating, Barnyardgrass [1, 15]: 0
Plant response rating, Flood, Rice [2]: 0
Plant response rating, Rice [2, 13]: 0
Plant response rating, Rice [2, 20]: 0
Plant response rating, Rice [2, 15]: 0
Plant response rating, Flood, Sedge, Umbrella [3]: 40
Plant response rating, Sedge, Umbrella [3, 13]: 0
Plant response rating, Sedge, Umbrella [3, 20]: 0
Plant response rating, Sedge, Umbrella [3, 15]: 0
Plant response rating, Flood, Ducksalad [4]: 40
Plant response rating, Ducksalad [4, 13]: 0
Plant response rating, Ducksalad [4, 20]: 0
Plant response rating, Ducksalad [4, 15]: 30
Foxtail, Giant plant response rating [5, 16]: 10
Plant response rating, Foxtail, Giant [5, 17]: 60
Plant response rating, Foxtail, Giant [5, 18]: 0
Plant response rating, Foxtail, Giant [5, 19]: 0
Wheat plant response rating [6, 16]: 0
Plant response rating, Wheat [6, 17]: 0
Plant response rating, Wheat [6, 18]: 0
Plant response rating, Wheat [6, 19]: 0
Barnyardgrass plant response rating [7, 16]: 10
Plant response rating, Barnyardgrass [7, 17]: 60
Plant response rating, Barnyardgrass [7, 18]: 0
Plant response rating, Barnyardgrass [7, 19]: 10
Morningglory plant response rating [8, 16]: 40
Plant response rating, Morningglory [8, 17]: 100
Plant response rating, Morningglory [8, 18]: 0
Plant response rating, Morningglory [8, 19]: 0
Velvetleaf plant response rating [9, 16]: 100
Plant response rating, Velvetleaf [9, 17]: 100
Plant response rating, Velvetleaf [9, 18]: 60
Plant response rating, Velvetleaf [9, 19]: 70
Pigweed plant response rating [10, 16]: 100
Plant response rating, Pigweed [10, 17]: 100
Plant response rating, Pigweed [10, 18]: 80
Plant response rating, Pigweed [10, 19]: 90
Corn plant response rating [11, 16]: 0
Plant response rating, Corn [11, 17]: 10
Plant response rating, Corn [11, 18]: 0
Plant response rating, Corn [11, 19]: 0
Crabgrass, Large plant response rating [12, 16]: 40
Plant response rating, Crabgrass, Large [12, 17]: 70
Plant response rating, Crabgrass, Large [12, 18]: 0
Plant response rating, Crabgrass, Large [12, 19]: 30
